Test results as given in patent EP4527828A1, “BIPHENYL COMPOUND, PHARMACEUTICAL COMPOSITION, METHOD FOR PREPARING SAME, AND USE THEREOF” (Longivitron (Suzhou) Biotechnology Co., Ltd, priority 2022, dated 2023).
Read-outs that look alike come from different tables or passages of the source.

Assays:
[1] = test system: mouse liver cancer HEPA1-6; format: in vivo; conditions: HEPA1-6, 100 mg/kg ip once, after 27 days of administration
Description: (1) 32 8-week-old female C57L mice were selected and divided into 5 cages. HEPA1-6 cells cultured with DMEM + 10% FBS in vitro were washed with PBS and digested with 0.25% trypsin for 3 min. The digestion was terminated with a serum-containing medium, the cells were centrifuged at 2500 rpm for 5 min, the supernatant was discarded, and the cells were resuspended with an appropriate amount of PBS twice. The number of cells was 1.14 × 10^7 cells/mL as counted with a BioRad counting instrument. The cell suspension was placed in an Erlenmeyer flask in an ice bath for later use. The tumor fluid was evenly aspirated using a 1 mL sterile syringe and inoculated 0.2 mL/mouse. After the inoculation was completed, the mice continued to be fed under the initial feeding conditions.
(2) Animal grouping: On the second day after tumor fluid inoculation of C57B/L mice, 32 mice were randomly grouped: 8 mice in a control group, 6 mice in a Compound 4-5 mg/kg group, 6 mice in a Compound 4-10 mg/kg group, 6 mice in a Compound 4-20 mg/kg group, and 6 mice in a positive control drug cyclophosphamide (CTX)-100 mg/kg group. The drug test groups were given the drugs to be tested orally once a day, and the positive control drug CTX was injected intraperitoneally once. The mice were weighed and administered daily.
(3) Drug preparation: The corresponding amounts of the drugs to be tested were weighed according to the final concentrations of the experimental groups. The drugs of the Compound 4-5 mg/kg group, the Compound 4-10 mg/kg group, and the Compound 4-20 mg/kg group were prepared with 5% CMCNa + Tween 80, and CTX was prepared with normal saline. The mice in the control group were given 5% CMCNa solution orally. The dosages were as follows: 0.4 mL/20 g body weight of the animal for intragastric administration, and 0.2 mL/20 g body weight of the animal for intraperitoneal injection.
(4) The animals were sacrificed, and the tumors were separated and weighed. The animals in each group were treated immediately 1 h after administration on the last day and weighed, and the tumor tissue was separated and weighed.

mouse melanoma B16F10 [2] = format: in vivo; conditions: B16F10, Table 6, 100 mg/kg ip once, after 15 days of administration
Description: (§1) (1) 43 8-week-old female C57B/L mice were selected and divided into 5 cages. One preserved B16F10 tumor-bearing female C57L mouse was sacrificed by cervical dislocation. 75% alcohol was sprayed on the skin of the mouse in a laminar flow cabinet, and the tumor tissue of the tumor-bearing mouse was separated by sterilized surgical instruments and cut into a sterilized 5 mL homogenizer with ophthalmic scissors. The tumor tissue was slowly milled on ice to form a tumor fluid. The number of cells was 6.85 × 10^7 cells/mL as counted with a BioRad counting instrument. The tumor fluid was placed in an Erlenmeyer flask in an ice bath for later use. The tumor fluid was evenly aspirated using a 1 mL sterile syringe and inoculated 0.2 mL/C57/L mouse. After the inoculation was completed, the mice continued to be fed under the initial feeding conditions.
(2) Animal grouping and administration: On the second day after tumor fluid inoculation of C57B/L mice, 43 mice were randomly grouped: 10 mice in a control group, 8 mice in a Compound 4-20 mg/kg group, 8 mice in a Compound 4-30 mg/kg group, 8 mice in a Compound 4-40 mg/kg group, and 9 mice in a positive control drug cyclophosphamide CTX-100 mg/kg group. The mice were weighed and administered.
(3) Drug preparation: The corresponding amounts of the drugs were weighed according to the final concentrations of the experimental groups. The drugs of the Compound 4-20 mg/kg group and the Compound 4-30 mg/kg group were prepared with 0.25% CMCNa + Tween 80 and administered orally once a day. The drug of Compound 4-40 mg/kg was prepared with normal saline + Tween 80 and administered intraperitoneally. CTX was prepared with normal saline and administered intraperitoneally once. The mice in the control group were given 0.25% CMCNa solution orally.
(§2) (4) The animals were sacrificed, and the tumors were separated and weighed. The animals in each group were treated immediately 1 h after administration on the last day and weighed, and the tumor tissue was weighed.

mouse melanoma B16F10 [3] = format: in vivo; conditions: B16F10, Table 7, 100 mg/kg intraperitoneally once
Description: as §1, §2
Animal grouping and administration: On the second day after tumor fluid inoculation of C57B/L mice, tumor-bearing mice were randomly grouped: a control group, a Compound 8-5 mg/kg group, a Compound 8-10 mg/kg group, a Compound 8-20 mg/kg group, and a positive control drug cyclophosphamide CTX-100 mg/kg group. The animals were weighed and administered daily. The drugs to be tested were administered orally daily, and the positive control drug CTX was administered intraperitoneally once. After the experiment was completed, the body weights and tumor weights of the animals were weighed, and the tumor weight inhibition rate (%) was calculated.

LAG3/FGL1 = biological target: T1, LAG3/FGL1 (Homo sapiens, UniProt P18627); assay: HTRF binding inhibition of LAG3 and its ligand FGL1; conditions: binding inhibition LAG3/FGL1; read-out: IC50
T1 sequence (P18627 23-450 limits assumed): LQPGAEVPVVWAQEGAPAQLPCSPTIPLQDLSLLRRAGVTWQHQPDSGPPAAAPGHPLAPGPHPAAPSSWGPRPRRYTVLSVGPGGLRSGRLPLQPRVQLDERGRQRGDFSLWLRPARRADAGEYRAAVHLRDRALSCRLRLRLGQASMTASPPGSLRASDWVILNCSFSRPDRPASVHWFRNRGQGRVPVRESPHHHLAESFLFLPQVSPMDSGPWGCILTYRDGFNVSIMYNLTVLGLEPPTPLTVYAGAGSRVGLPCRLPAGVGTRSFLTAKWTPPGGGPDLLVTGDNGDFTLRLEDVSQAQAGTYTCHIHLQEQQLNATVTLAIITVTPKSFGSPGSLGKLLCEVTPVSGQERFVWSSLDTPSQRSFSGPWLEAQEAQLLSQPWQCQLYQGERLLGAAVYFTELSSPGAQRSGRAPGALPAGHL
Description: Reagent preparation: ① Tag1-LAG3 protein: a protein solution with a concentration of 50 nM (20 µL with a final system concentration of 10 nM) was prepared using a diluent. ② Tag2-FGL1 protein: a protein solution with a concentration of 100 nM (20 µL with a final system concentration of 20 nM) was prepared using a diluent. ③ Anti-Tag1-Tb: a 100× stock solution was diluted with a detection buffer to a 1 × stock solution. ④ Anti-Tag2-XL665: a 100× stock solution was diluted with a detection buffer to a 1 × stock solution.
Assay step: (1) 2 µL of compound solution (with a concentration to be measured of 10×) was added to a 384-well opaque plate having a white background, 4 µL of Tag1-LAG3 protein and 4 µL of Tag2-FGL1 protein were added, respectively, and the plate was incubated at room temperature for 15 min; (2) Anti-Tag1-Tb and Anti-Tag2-XL665 were mixed at a ratio of 1:1 in advance, and 10 µL of mix solution was added to each well; (3) the plate was gently mixed, sealed, and incubated at room temperature for 1 h or overnight before detection.

LAG3/MHCII = biological target: T2, LAG3/MHCII (Homo sapiens, UniProt P18627); assay: HTRF binding inhibition of LAG3 and its ligand MHCII; conditions: binding inhibition LAG3/MHCII
T2 sequence (P18627 23-450 limits assumed): T1 sequence (P18627 23-450 limits assumed)
Description: HTRF (Homogeneous time-resolved fluorescence) is based on two techniques, fluorescence resonance energy transfer (FRET) and time-resolved fluorescence (TRF). The detection was carried out using a 384-well plate. 2 µL of a compound to be tested with an appropriate concentration was collected, 4 µL of Tag1-LAG3 protein (with a final concentration of 10 nmol·L^-1) was added, 4 µL of Tag2-MHCII (with a final concentration of 20 nmol·L^-1) was added, and the plate was incubated at room temperature for 15 min. 10 µL of Anti-Tag1-Tb working solution (prepared by adding 25 µL of Anti-Tag1-Tab mother solution to 2475 µL of dilution buffer) was added, 10 µL of Anti-Tag2-XL665 working solution (prepared by adding 25 µL of Tag2-XL665 mother solution to 2475 µL of dilution buffer) was added, and the plate was sealed with a film and incubated at room temperature for 1 h. The detection was carried out using a Perkin Elma Envision instrument.

Structure (SMILES)	Inhibition rate [1] [%]	Tumor weight [1] [g]	Inhibition rate (mouse melanoma B16F10 [2]) [%]	Tumor weight (mouse melanoma B16F10 [2]) [g]	Inhibition rate (mouse melanoma B16F10 [3]) [%]	Tumor weight (mouse melanoma B16F10 [3]) [g]	IC50 (LAG3/FGL1) [µM]	IC50 (LAG3/MHCII) [µM]
O=P1(N(CCCl)CCCl)NCCCO1 (centres unmarked) [CTX, cyclophosphamide, reference compound]	-18.65	0.804 ± 0.459	61.20	1.128 ± 0.394	82.93	0.30 ± 0.10	–	–
CCCCCCOc1ccc(C(=O)NCCCCNC(=O)C(F)(F)F)cc1-c1cc(C(=O)NCCCCNC(=O)C(F)(F)F)ccc1OCCCCCC [Compound 13]	–	–	–	–	–	–	46	4.01
